Test results taken from patent US10173991B2, “Sulfone amide linked benzothiazole inhibitors of endothelial lipase” (BRISTOL-MYERS SQUIBB COMPANY, priority 2014, dated 2019).

Molecular target: Endothelial lipase (EL) (Homo sapiens (Human), UniProt Q9Y5X9)
Experiment: Endothelial lipase (EL) enzymatic assay with fluorescent substrate A10070 in DMPG vesicles
Assay type: biochemical
Method: Endothelial lipase (EL) and hepatic lipase (HL) activities were measured using a fluorescent substrate, A10070, (Invitrogen, CA) doped into an artificial vesicle containing DMPG (Avanti Polar Lipids) as the excipient. Vesicles were prepared by combining 571 μL of 29 mM DMPG in a 1:1 mixture of MeOH and CHCl3 with 2000 μL of 1 mM A10070 in a 1:1 mixture of MeOH and CHCl3. The mixture was dried under nitrogen in multiple vials then resuspended in 20 mL total volume of 50 mM HEPES pH 8.0 buffer containing 50 mM NaCl and 0.2 mM EDTA. The sample was allowed to sit at room temperature for 15 min and then was sonicated 3×4 mins on ice with a Branson Sonicator using duty cycle 1. This preparation provides vesicles with a mole fraction of 0.11 for the FRET substrate.
The enzymatic assay was measured using 384-well white Optiplates. Each well contained 20 μL of assay buffer (50 mM HEPES pH 8.0, 50 mM NaCl and 1 mM CaCl2) and 0.25 μL of a DMSO solution containing a compound of interest. EL or HL (10 μL) was added and allowed to incubate with the compound for 30 min at 37° C. The source of EL was conditioned media obtained from HT-1080 cells that were transformed using RAGE technology (Athersys) to overexpress endogenous EL, and HL was partially purified from conditioned media obtained from COS cells overexpressing HL. The reaction was started by the addition of 10 μL of a 1:10 dilution of vesicles. The final total reaction volume was […]. The reaction rates were measured on a Gemini plate reader with an excitation wavelength of 490 nm and an emission wavelength of 530 nm. Readings were taken over a period of 60 minutes, and the slope between 300 and 900 secs of the readout was used to calculate the rate of the reaction.

Endothelial lipase (EL), sequence (Q9Y5X9 21-500): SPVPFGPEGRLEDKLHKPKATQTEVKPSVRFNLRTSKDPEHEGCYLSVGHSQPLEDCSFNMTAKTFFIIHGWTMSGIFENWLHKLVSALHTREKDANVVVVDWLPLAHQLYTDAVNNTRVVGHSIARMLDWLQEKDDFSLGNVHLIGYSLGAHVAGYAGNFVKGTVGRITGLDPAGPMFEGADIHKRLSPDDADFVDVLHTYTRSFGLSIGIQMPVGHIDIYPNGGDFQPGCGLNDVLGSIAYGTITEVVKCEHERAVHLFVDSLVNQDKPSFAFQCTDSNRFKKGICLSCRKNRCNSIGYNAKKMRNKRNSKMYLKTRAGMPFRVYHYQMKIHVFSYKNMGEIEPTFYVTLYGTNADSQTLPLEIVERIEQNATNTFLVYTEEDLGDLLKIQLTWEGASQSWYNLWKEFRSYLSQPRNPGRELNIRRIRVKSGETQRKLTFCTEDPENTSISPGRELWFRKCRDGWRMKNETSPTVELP

SMILES: COC(=O)Nc1ccc(-c2ccc3nc(C(C(=O)NCC(=O)NC4CC4)S(=O)(=O)CCC(F)(F)F)sc3c2)c(C)c1 (stereo not shown) [Example 26]
- IC50: 7 nM

SMILES: COCCS(=O)(=O)C(C(=O)NCC(=O)NC1CC1)c1nc2ccc(-c3ccc(N(C)C(C)=O)cc3)cc2s1 (stereo not shown) [Example 27, N-[(cyclopropyl-carbamoyl)methyl]-2-(2-methoxy-ethanesulfonyl)-2-{6-[4-(N-methylacetamido)phenyl]-1,3-benzothiazol-2-yl}acetamide]
- IC50: 58 nM

SMILES: CC(=O)N(C)c1ccc(-c2ccc3nc(C(C(=O)NCC(=O)NC4CC4)S(=O)(=O)CCC(F)(F)F)sc3c2)cc1 (stereo not shown) [Example 28, N-[(cyclopropyl-carbamoyl)methyl]-2-{6-[4-(N-methylacetamido)phenyl]-1,3-benzothiazol-2-yl}-2-(3,3,3-trifluoropropane-sulfonyl) acetamide]
- IC50: 54 nM

SMILES: COC(=O)Nc1ccc(-c2ccc3nc(C(C(=O)NCC(=O)NC4CC4)S(C)(=O)=O)sc3c2)c(C)c1 (stereo not shown) [Example 29, methyl N-{4-[2-({[(cyclopropyl-carbamoyl)methyl]carbamoyl} (methanesulfonyl)methyl)-1,3-benzothiazol-6-yl]-3-methylphenyl} carbamate]
- IC50: 20 nM

SMILES: COCCS(=O)(=O)C(C(=O)NCC(=O)NC1CC1)c1nc2ccc(-c3ccc(NC(=O)OC)cc3C)cc2s1 (stereo not shown) [Example 30, methyl N-{4-[2-({[(cyclopropy-lcarbamoyl)methyl]carbamoyl}(2-methoxyethane-sulfonyl)methyl)-1,3-benzothiazol-6-yl]-3-methylphenyl} carbamate]
- IC50: 21 nM

SMILES: CC(=O)N(C)c1ccc(-c2cc3sc(C(C(=O)NCC(=O)NC4CC4)S(C)(=O)=O)nc3cc2F)cc1 (stereo not shown) [Example 31, N-[(cyclopropyl-carbamoyl)methyl]-2-{5-fluoro-6-[4-(N-methylacetamido)phenyl]-1,3-benzothiazol-2-yl}-2-methanesulfonyl-acetamide]
- IC50: 11 nM

SMILES: COCCS(=O)(=O)C(C(=O)NCC(=O)NC1CC1)c1nc2cc(F)c(-c3ccc(N(C)C(=O)OC)cc3)cc2s1 (stereo not shown) [Example 32, methyl N-{4-[2-({[(cyclopropyl-carbamoyl)methyl]carbamoyl}(2-methoxyethane-sulfonyl)methyl)-5-fluoro-1,3-benzothiazol-6-yl]phenyl}-N-methylcarbamate]
- IC50: 6 nM

SMILES: COC(=O)N(C)c1ccc(-c2cc3sc(C(C(=O)NCC(=O)NC4CC4)S(=O)(=O)CCC(F)(F)F)nc3cc2F)cc1 (stereo not shown) [Example 33, methyl N-{4-[2-({[(cyclopropyl-carbamoyl)methyl]carbamoyl}(3,3,3-trifluoropropane-sulfonyl)methyl)-5-fluoro-1,3-benzothiazol-6-yl]phenyl}-N-methylcarbamate]
- IC50: 4 nM

SMILES: COC(=O)Nc1ccc(-c2cc3sc(C(C(=O)NCC(=O)NC4CC4)S(C)(=O)=O)nc3cc2F)c(C)c1 (stereo not shown) [Example 34, methyl N-{4-[2-({[(cyclopropyl-carbamoyl)methyl]carbamoyl} (methanesulfonyl)methyl)-5-fluoro-1,3-benzothiazol-6-yl]-3-methylphenyl} carbamate]
- IC50: 4 nM

SMILES: COCCS(=O)(=O)C(C(=O)NCC(=O)NC1CC1)c1nc2cc(F)c(-c3ccc(NC(=O)OC)cc3C)cc2s1 (stereo not shown) [Example 35, methyl N-{4-[2-({[(cyclopropyl-carbamoyl)methyl]carbamoyl}(2-methoxyethane-sulfonyl)methyl)-5-fluoro-1,3-benzothiazol-6-yl]-3-methylphenyl} carbamate]
- IC50: 8 nM

SMILES: COCCOC(=O)Nc1ccc(-c2cc3sc(C(C(=O)NCC(=O)NC4CC4)S(C)(=O)=O)nc3cc2F)cn1 (stereo not shown) [Example 36, 2-methoxyethyl N-{5-[2-({[(cyclopropyl-carbamoyl)methyl]carbamoyl} (methanesulfonyl)methyl)-5-fluoro-1,3-benzothiazol-6-yl]pyridin-2-yl}carbamate]
- IC50: 11 nM

SMILES: COCCOC(=O)Nc1ccc(-c2cc3sc(C(C(=O)NCC(=O)NC4CC4)S(=O)(=O)CCOC)nc3cc2F)cn1 (stereo not shown) [Example 37, 2-methoxyethyl N-{5-[2-({[(cyclopropyl-carbamoyl)methyl]carbamoyl}(2-methoxyethane-sulfonyl)methyl)-5-fluoro-1,3-benzothiazol-6-yl]pyridin-2-yl} carbamate]
- IC50: 5 nM

SMILES: CC(C)S(=O)(=O)C(C(=O)NCC(=O)NC1CC1)c1nc2cc(F)c(-c3ccc(NC(=O)OCc4ccccc4)cc3)cc2s1 (stereo not shown) [Example 38, benzyl N-{4-[2-({[(cyclopropyl-carbamoyl)methyl]carbamoyl} (propane-2-sulfonyl)methyl)-5-fluoro-1,3-benzothiazol-6-yl]phenyl} carbamate]
- IC50: 2 nM

SMILES: CS(=O)(=O)C(C(=O)NCC(=O)NC1CC1)c1nc2cc(F)c(-c3cccc(Cl)c3)cc2s1 (stereo not shown) [Example 39, 2-[6-(3-chlorophenyl)-5-fluoro-1,3-benzothiazol-2-yl]-N-[(cyclopropyl-carbamoyl)methyl]-2-methanesulfonyl-acetamide]
- IC50: 3 nM

SMILES: COCCS(=O)(=O)C(C(=O)NCC(=O)NC1CC1)c1nc2cc(F)c(-c3cccc(Cl)c3)cc2s1 (stereo not shown) [Example 40, 2-[6-(3-chlorophenyl)-5-fluoro-1,3-benzothiazol-2-yl]-N-[(cyclopropyl-carbamoyl)methyl]-2-(2-methoxyethane-sulfonyl)acetamide]
- IC50: 3 nM

SMILES: CS(=O)(=O)C(C(=O)NCC(=O)NC1CC1)c1nc2cc(F)c(-c3ccc(C(=O)NCCC#N)cc3)cc2s1 (stereo not shown) [Example 41, N-(2-cyanoethyl)-4-[2-({[(cyclopropyl-carbamoyl)methyl]carbamoyl} (methanesulfonyl)methyl)-5-fluoro-1,3-benzothiazol-6-yl]benzamide]
- IC50: 5 nM

SMILES: COCCS(=O)(=O)C(C(=O)NCC(=O)NC1CC1)c1nc2cc(F)c(-c3ccc(C(=O)NCCC#N)cc3)cc2s1 (stereo not shown) [Example 42, N-(2-cyanoethyl)-4-[2-({[(cyclopropyl-carbamoyl)methyl]carbamoyl}(2-methoxyethane-sulfonyl)methyl)-5-fluoro-1,3-benzothiazol-6-yl] benzamide]
- IC50: 7 nM

SMILES: CS(=O)(=O)Nc1ccc(-c2cc3sc(C(C(=O)NCC(=O)NC4CC4)S(=O)(=O)CCC(F)(F)F)nc3cc2F)cc1 (stereo not shown) [Example 43, N-[(cyclopropyl-carbamoyl)methyl]-2-[5-fluoro-6-(4-methanesulfon-amidophenyl)-1,3-benzothiazol-2-yl]-2-(3,3,3-trifluoropropane-sulfonyl) acetamide]
- IC50: 37 nM

SMILES: N#CCCNC(=O)c1ccc(-c2cc3sc(C(C(=O)NCC(=O)NC4CC4)S(=O)(=O)CCC(F)(F)F)nc3cc2F)cc1 (stereo not shown) [Example 44, N-(2-cyanoethyl)-4-[2-({[(cyclopropyl-carbamoyl)methyl]carbamoyl}(3,3,3-trifluoropropane-sulfonyl)methyl)-5-fluoro-1,3-benzothiazol-6-yl] benzamide]
- IC50: 3 nM

SMILES: CCS(=O)(=O)C(C(=O)NCC(=O)NC1CC1)c1nc2cc(F)c(-c3ccc(NC(=O)OCc4ccccc4)cc3)cc2s1 (stereo not shown) [Example 45, benzyl N-{4-[2-({[(cyclopropyl-carbamoyl)methyl]carbamoyl} (ethanesulfonyl)methyl)-5-fluoro-1,3-benzothiazol-6-yl]phenyl} carbamate]
- IC50: 3 nM

SMILES: O=C(CNC(=O)C(c1nc2cc(F)c(-c3ccc(NC(=O)OCc4ccccc4)cc3)cc2s1)S(=O)(=O)CCCC(F)(F)F)NC1CC1 (stereo not shown) [Example 46, benzyl N-{4-[2-({[(cyclopropyl-carbamoyl)methyl]carbamoyl}(4,4,4-trifluorobutane-sulfonyl)methyl)-5-fluoro-1,3-benzothiazol-6-yl]phenyl}carbamate]
- IC50: 2 nM

SMILES: N#CCS(=O)(=O)C(C(=O)NCC(=O)NC1CC1)c1nc2cc(F)c(-c3ccc(NC(=O)OCc4ccccc4)cc3)cc2s1 (stereo not shown) [Example 47, benzyl N-(4-{2-[(cyanomethane-sulfonyl) ({[(cyclopropyl-carbamoyl)methyl]carbamoyl}methyl]-5-fluoro-1,3-benzothiazol-6-yl}phenyl) carbamate]
- IC50: 2 nM

SMILES: CCCCCS(=O)(=O)C(C(=O)NCC(=O)NC1CC1)c1nc2cc(F)c(-c3ccc(NC(=O)OCc4ccccc4)cc3)cc2s1 (stereo not shown) [Example 48, benzyl N-{4-[2-({[(cyclopropyl-carbamoyl)methyl]carbamoyl} (pentane-1-sulfonyl)methyl)-5-fluoro-1,3-benzothiazol-6-yl]phenyl}carbamate]
- IC50: 1 nM

SMILES: CC(C)CS(=O)(=O)C(C(=O)NCC(=O)NC1CC1)c1nc2cc(F)c(-c3ccc(NC(=O)OCc4ccccc4)cc3)cc2s1 (stereo not shown) [Example 49, benzyl N-{4-[2-({[(cyclopropyl-carbamoyl)methyl]carbamoyl}(2-methylpropane-sulfonyl)methyl)-5-fluoro-1,3-benzothiazol-6-yl]phenyl}carbamate]
- IC50: 3 nM

SMILES: O=C(CNC(=O)C(c1nc2cc(F)c(-c3ccc(NC(=O)OCc4ccccc4)cc3)cc2s1)S(=O)(=O)C1CC1)NC1CC1 (stereo not shown) [Example 50, benzyl N-(4-{2-[(cyclopropane-sulfonyl) ({[(cyclopropyl-carbamoyl)methyl]carbamoyl}methyl]-5-fluoro-1,3-benzothiazol-6-yl}phenyl) carbamate]
- IC50: 3 nM
